In patent publication EP4361137A1, “PRUNE1 INHIBITORS AND THERAPEUTIC USE THEREOF” (CEINGE Biotecnologie Avanzate Franco Salvatore s.c. a r.l., priority 2022, dated 2024):
Several values for one entry are separate records, joined by “and”; a condition that tells them apart may be missing. Equal values may be shown once. Entries after “also recorded” stand apart in the source; their conditions may differ. Values belong to the compound of their own block, whether it stands above or below them.

Key:
Caspase 3 = Caspase 3 activity assay; format: cell-based, murine; settings: MATH1-Prune1/TP53-/- cells; Vincristine 0.3 nM and 0.03 nM; LEO-AA7.5(S)T 10 µM; 24 hours
Description: MATH1-Prune1/TP53-/- cells (3×10^4) were plated in 96-well plate and treated with different doses of Vincristine (i.e., 0.3 nM or 0.03 nM) alone or combined to 10 µM LEO-AA7.5(S)T. Vehicle- (0.01% DMSO) treated cells were used as negative controls. Staurosporine-treated cells (1 µM) were used as positive controls of the assays. The assay was performed by using Caspase-3 Activity Assay Kit (#5723, Cell Signaling), by following the manufacture's instruction. Briefly, after 24 hours from the treatment started, cell medium was removed and 30 ul of cell lysis buffer (PI-7018, Cell Signaling) were added. The plate was then incubated for 5 minutes on ice. Later, 25 ul of cell lysate were mixed with 200 ul substrate solution B (#11734S, Cell Signaling) in a black 96 well plate. Fluorescence was detected by using a multimode plate reader (Enspire, 2300, PerkinElmer). The positive control AMC (25 µl, #11735S, Cell Signaling) mixed with 200 ul 1X assay buffer A (#11736S, Cell Signaling) was used as positive control of fluorescence.

[1] = test system: MATH1-Prune1/TP53-/- cells; assay: Real-time cell proliferation assay (cell index, xCELLigence); format: cell-based, murine; settings: impedance every 2 min over 24 h
Description: Primary murine TNBC cells from tumors generated by MMTV-Prune1/Wnt1 mice [Ferrucci et al., 2021] and Primary murine Medulloblastoma Group 3 cells from tumors generated MATH-Prune1/TP53-/- mice were obtained (2 months from tumor onset).
(§1) Cellular proliferation rates were determined with the xCELLigence system (Roche). D425-MED, MATH-Prune1/TP53-/- and MMTV-Prune1/Wnt1 cells (8 × 10^3) were treated with increasing concentrations of LEO-AA7.5(S)T, harvested, and then added to a single well of an xCELLigence E-plate 16. The proliferation rates were determined at 2-min intervals by measuring the impedance changes across the electrodes at the bottoms of the wells. These cell index values were calculated by the xCELLigence RTCA software. with vehicle-treated cells were the negative control. Impedance was measured every 2 min over 24 hours. The IC50 values were calculated through nonlinear regression analysis performed with Graph Pad Prism 9 ([inhibitor] vs. response (three parameters). Data are means ± SD of three independent experiments.

D425-MED cells [2] = settings: Ferrucci et al., 2018, read-out: IC50 reported for AA7.1 in the same D425-Med cells; cited from earlier work
MATH1-Prune1/ TP53-/- = assay: Orthotopic implantation of MATH1-Prune1/TP53-/- cells in immunocompetent syngeneic mice, tumor growth; format: in vivo, FVB WT mice; settings: AA7.1 at 30 mg/kg/day or 60 mg/kg/day intraperitoneally
Description: MATH1-Prune1/ TP53-/- were implanted into the right cerebellar hemisphere of female (n.10) immunocompetent syngeneic mice model (5 weeks old, strain: FVB WT) to establish intracerebellar MATH1-Prune1/ TP53-/- models. Mice were anaesthetised with Ketamine/ Xylazine (87.5 mg/kg, 12.5 mg/kg, respectively). The mice were then placed in a stereotactic frame by hooking their incisors onto the frame hold. A small skin incision (length, 1 mm) and a burr hole (diameter, 0.7 mm) were created using a microsurgical drill (Fine Science Tools, Foster City, CA, USA of MATH1-Prune1/ TP53-/- (1.5 ×10^5) were resuspended in 10 µL PBS and injected slowly through the burr hole into the right cerebellar hemisphere (stereotactic coordinates from Bregma: anteroposterior, 5.5 mm; right lateral, 2.1 mm; dorsoventral 5.0 mm), with a steady force over 30 s, using a 10-AL, 26-gauge Hamilton Gastight model 1701RN syringe needle (SigmaAldrich) that was inserted perpendicular to the cranial surface. The incision was sutured using Safil polyglycolic acid synthetic absorbable suture (6/0). The mice were kept on a warming blanket after the surgery, to help them to maintain their body temperature. Their mobility and respiratory patterns were observed continuously, and once the mice had recovered from the anaesthesia; they were place in a sterile housing cage. The mice were monitored daily for development of potential neurological deficits. 10 days after the implantation of the cells, the mice were imaged, and tumour growth was evaluated by bioluminescence acquisition using an imaging system (IVIS 3D Illumina; Xenogen/ Caliper). For the acquisitions, the mice were anaesthetised by inhalational of isoflurane, and the D-luciferin (122799; PerkinElmer) (15 mg/mL stock) was injected intraperitoneally (100 µL per 10 g body weight). At 5 min from the luciferin injection, the mice were imaged for 3 min. To quantify the bioluminescence, the integrated fluxes of photons (p/s) within each area of interest were determined using the Living Images Software Package 3.2 (Xenogen-Perkin Elmer). […] After 17 days from tumour implantation (i.e., after one weeks of LEO-AA7.5(S)T treatment), the mice were sacrificed, and the organs were collected for immunohistochemistry and immunofluorescence analyses.
Paraffin sections of the tumor specimens (thickness, 3 µm) were deparaffinised and rehydrated by immersing the slides in Xylene Substitute (A5597; Sigma), as three washes for 5 min each, then serially in 100%, 95%, 70%, 50%, and 30% ethanol (two washes for 10 min, for each), and deionised water (two washes, for 5 min each). The washes were then followed by PBS, PBS containing 0.02% Triton-X 100 (215680010; Acros Organics), and PBS (two washes for 5 min, for each). For antigen retrieval, the slides were immersed in boiling 10 mM sodium citrate buffer (pH 6.0) using a microwave oven, and then maintained at sub-boiling temperature for 10 min. The slides were left to cool at room temperature for 30 min. The sections were then washed by immersion in distilled water for 5 min. To block endogenous peroxidase activity, the tissue sections were placed in a solution with 3.0% hydrogen peroxide in methanol for 15 min. Then, to decrease the nonspecific background fluorescence, the tissues were digested by treating them with a solution containing 0.2% trypsin (T2600000; Sigma-Aldrich) and 0.001% CaCl2 for 10 min at 37 °C, in a humidified chamber. The slides were then washed in PBS, PBS containing 0.02% Triton-X 100 (215680010; Acros Organics), and PBS (two washes for 5 min, for each). The tissue sections were blocked with 6% bovine serum albumin (A9418; Sigma), 5% fetal bovine serum (ECS0180L; Euroclone), and 20 mM MgCl2 in PBS containing 0.02% Triton-X 100, for 1 h at room temperature, and incubated overnight with the primary antibodies at 4 °C in a humidified chamber. […]

[3] = 15, 30, and 60 mg/kg intraperitoneally daily for 1 week; Ferrucci et al.; cited from earlier work
D425-MED cells [4] = assay: Real-time cell proliferation assay (cell index, xCELLigence); format: cell-based, human; settings: combination with Vincristine
Description: J774A.1 murine macrophages (referred to as J774 cells; ATCC: #TIB-67), MMTV-Prune1-Wnt1 cells were grown in high-glucose Dulbecco's modified Eagle's medium (DMEM; Euroclone) supplemented with 20% (v/v) FBS, 2 mM L-glutamine, and 1% (v/v) antibiotics (Pen/Strep). D425-MED, D425-MED-Luc and […] cells were grown in high-glucose Dulbecco's modified Eagle's medium (DMEM; Euroclone) and Iscove's Modified Dulbecco's Medium (IMDM; Sigma) at 1:1 (v/v) dilution supplemented with 20% (v/v) FBS, 2 mM L-glutamine, 1% non-essential amino acid solution (M7145; Sigma-Aldrich/Merck), and 1% (v/v) antibiotics (Pen/Strep). The cells were grown at 37 °C in a humidified atmosphere of 95% air, 5% CO2 (v/v).
D425.MED and MMTV-Prune1/Wnt1 cells were plated and treated with increasing concentrations of LEO-AA7.5(S)T for 24 hours. Water-treated cells were used as negative control for the experiments.
as §1

Caspase 3 activation, single agent (Caspase 3): activation of Caspase 3
SMILES: CC[C@]1(O)C[C@H]2CN(CCc3c([nH]c4ccccc34)[C@@](C(=O)OC)(c3cc4c(cc3OC)N(C=O)[C@H]3[C@@](O)(C(=O)OC)[C@H](OC(C)=O)[C@]5(CC)C=CCN6CC[C@]43[C@@H]65)C2)C1 [Vincristine]
half maximal inhibitory concentration (IC50) for the inhibition of cell proliferation index [1]: 35 µM and 19,6 µM

SMILES: COc1ccc(CNc2ccnc(N3CC[C@@H](O)C3)n2)cc1 [AA7.1, (R)-1-(4-((4-methoxybenzyl)amino)pyrimidin-2-yl)pyrrolidin-3-ol, reference compound]
IC50 (D425-MED cells [2]): 130 ± 52.1 µM
MB progression / tumour growth in cerebellum (bioluminescence) (MATH1-Prune1/ TP53-/-): inhibit MB progression; also recorded: impairment of tumour growth
acute toxicity (hematological parameters, hepatotoxicity, nephrotoxicity) [3]: no immediate acute toxicity

SMILES: COc1ccc(CNc2ncnc(N3CCCC(CO)C3)n2)cc1 (stereo not drawn) [compound (I)]
dose of the chemotherapeutics diminished by synergistic action with Vincristine (D425-MED cells [4]): more than 100 fold
